According to ChEMBL document CHEMBL1201862, “PubChem BioAssay data set” (2004):
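Five concentrations, 48 hours, 96-well plates. GI50 is the concentration that inhibits growth by half.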 The source made the active and inactive calls. Cut-off read from the data, not from the text of the source: active = GI50 up to about 1.1 µM and inactive = higher.

Columns and labels:
Experiment in all cases: inhibition of tumour cell growth, NCI panel, 48 h
HL-60 = system: HL-60
K562 = system: K562
CCRF-CEM = system: CCRF-CEM
HCT-15 = system: HCT-15
RXF 393 = system: RXF 393
NCI-H226 = system: NCI-H226
UACC-257 = system: UACC-257
SN12C = system: SN12C
SK-MEL-5 = system: SK-MEL-5
ACHN = system: ACHN
A549 = system: A549
SW-620 = system: SW-620
HCT-116 = system: HCT-116
T47D = system: T47D
NCI/ADR-RES = system: NCI/ADR-RES
OVCAR-3 = system: OVCAR-3
SF-295 = system: SF-295
HCC 2998 = system: HCC 2998
SNB-75 = system: SNB-75
UACC-62 = system: UACC-62

CC(=O)Nc1cc2cc(N)ccc2oc1=O
GI50 (HL-60): > 100 µM (inactive)
GI50 (K562): > 100 µM (inactive)
GI50 (CCRF-CEM): > 100 µM (inactive)
GI50 (HCT-15): > 100 µM
GI50 (RXF 393): 0.0411 µM (active)
GI50 (NCI-H226): > 100 µM (inactive)
GI50 (UACC-257): > 100 µM (inactive)
GI50 (SN12C): > 100 µM (inactive)
GI50 (SK-MEL-5): > 100 µM (inactive)
GI50 (ACHN): > 100 µM (inactive)
GI50 (A549): > 100 µM (inactive)
GI50 (SW-620): > 100 µM (inactive)
GI50 (HCT-116): > 100 µM (inactive)
GI50 (T47D): > 100 µM (inactive)
GI50 (NCI/ADR-RES): > 100 µM (inactive)
GI50 (OVCAR-3): > 100 µM (inactive)
GI50 (SF-295): > 100 µM (inactive)
GI50 (HCC 2998): > 100 µM (inactive)

N=C1OC(c2c[nH]c3ccc(OCc4ccccc4)cc23)C(O)=C1O (stereo not drawn)
GI50 (HL-60): 71.1 µM (inactive)
GI50 (K562): > 100 µM (inactive)
GI50 (HCT-15): > 100 µM
GI50 (RXF 393): > 100 µM (inactive)
GI50 (NCI-H226): > 100 µM (inactive)
GI50 (UACC-257): > 100 µM (inactive)
GI50 (SN12C): > 100 µM (inactive)
GI50 (SK-MEL-5): > 100 µM (inactive)
GI50 (ACHN): > 100 µM (inactive)
GI50 (SNB-75): 29.2 µM (inactive)
GI50 (A549): > 100 µM (inactive)
GI50 (SW-620): > 100 µM (inactive)
GI50 (HCT-116): > 100 µM (inactive)
GI50 (T47D): > 100 µM (inactive)
GI50 (NCI/ADR-RES): > 100 µM (inactive)
GI50 (OVCAR-3): > 100 µM (inactive)
GI50 (SF-295): > 100 µM (inactive)
GI50 (UACC-62): > 100 µM (inactive)
GI50 (HCC 2998): 0.951 µM (active)

O=[N+]([O-])c1ccc(-c2ccc([C@H]3CC(c4cc(F)c(Cl)cc4Cl)=NN3)o2)cc1
GI50 (HL-60): 1.06 µM (active)
GI50 (K562): 22.9 µM (inactive)
GI50 (CCRF-CEM): 1.06 µM (active)
GI50 (HCT-15): 1.52 µM
GI50 (RXF 393): 39.2 µM (inactive)
GI50 (NCI-H226): 21.9 µM (inactive)
GI50 (UACC-257): 49.4 µM (inactive)
GI50 (SN12C): 24.3 µM (inactive)
GI50 (SK-MEL-5): 7.83 µM (inactive)
GI50 (ACHN): 32.1 µM (inactive)
GI50 (SNB-75): 15.1 µM (inactive)
GI50 (SW-620): 23.6 µM (inactive)
GI50 (HCT-116): 29.6 µM (inactive)
GI50 (T47D): 5.48 µM (inactive)
GI50 (NCI/ADR-RES): 21.6 µM (inactive)
GI50 (OVCAR-3): 45.2 µM (inactive)
GI50 (SF-295): 44.2 µM (inactive)
GI50 (UACC-62): 21.3 µM (inactive)
GI50 (HCC 2998): 14.3 µM (inactive)

CC1=NN(c2nc(N)nc(CC#N)n2)C(C)(C)C1
GI50 (HL-60): > 100 µM (inactive)
GI50 (K562): > 100 µM (inactive)
GI50 (CCRF-CEM): > 100 µM (inactive)
GI50 (HCT-15): > 100 µM
GI50 (RXF 393): > 100 µM (inactive)
GI50 (NCI-H226): > 100 µM (inactive)
GI50 (UACC-257): > 100 µM (inactive)
GI50 (SK-MEL-5): > 100 µM (inactive)
GI50 (ACHN): > 100 µM (inactive)
GI50 (SNB-75): > 100 µM (inactive)
GI50 (SW-620): > 100 µM (inactive)
GI50 (HCT-116): > 100 µM (inactive)
GI50 (T47D): > 100 µM (inactive)
GI50 (NCI/ADR-RES): > 100 µM (inactive)
GI50 (SF-295): > 100 µM (inactive)
GI50 (UACC-62): > 100 µM (inactive)
GI50 (HCC 2998): > 100 µM (inactive)
